# Measured values reported in article PMC12344683, “N-alkyl and N-benzyl indoles are anti-SARS-CoV-2 agents and nsp13 inhibitors” (Journal of Enzyme Inhibition and Medicinal Chemistry, 2025).
# Like-named read-outs stand apart in the source and are kept apart here.
# What was measured:
# SARS-CoV-2 nsp13 [1] = target: T1, SARS-CoV-2 nsp13 (Severe acute respiratory syndrome coronavirus 2, UniProt P0DTD1); experiment: Incubation-dependent potency of 5c on nsp13 (inhibition type); type: biochemical; conditions: for IC50: read-out: IC50 at time-point
# [2] = Cellular toxicity assay (GFP signal as viability); type: cell-based; conditions: African green monkey; Vero cells; read-out: CC50, concentration required to reduce Vero cells viability by 50%
# Experimental: Vero E6-green fluorescent protein (GFP) cells (Janssen Pharmaceutical were maintained in Dulbecco’s modified Eagle’s medium (DMEM, Gibco) supplemented with 10% v/v foetal beef serum (FBS, Gibco), 0.075% Sodium Bicarbonate (7.5% solution, Gibco) and 1X Pen-strep (Euroclone) and kept under 5% CO2 on 37 ◦C. The cells were seeded at 10 000 cells/well in 96-well black cell-treated plates (PerkinElmer). The following day, cells were incubated with the control compounds at different concentrations. Compound was dissolved in 0.1% DMSO. Seventy-two hours post infection the GPF signal, as direct index of cellular viability, was quantified by measuring the total-well fluorescence with a Victor 3 multiplate reader (PerkinElmer) set to excitation and emission wavelengths of 485 and 535 nm, respectively.
# The percentage of induced cytopathic effects (CPE) was calculated considering the mock as 100% of cell viability, and the readout from empty wells as blank. The compound half-maximal cytopathic concentration (CC50), was determined via non-linear regression by using on Prism 9 v. 9.4.1 software (GraphPad) the built-in function dose-response inhibition, log-concentration-normalized response. Experimental points represent the average and standard deviation of at least two sets of independent triplicates.
# SARS-CoV-2 nsp13 [3] = target: T1, SARS-CoV-2 nsp13; experiment: SARS-CoV-2 nsp13 ATPase-associated activity (Biomol Green, BSA-TCEP); type: biochemical; conditions: for IC50: SARS-CoV-2 nsp13-associated ATPase activity, from dose-response curves
# SARS-CoV-2 nsp13 [4] = target: T1, SARS-CoV-2 nsp13; experiment: SARS-CoV-2 nsp13 unwinding-associated activity (fluorescence, BSA-TCEP); type: biochemical; conditions: for IC50: SARS-CoV-2 nsp13-associated unwinding activity, from dose-response curves
# SARS-CoV-2 = conditions: cited from earlier work
# SARS-CoV-2 nsp13 [5] = target: T1, SARS-CoV-2 nsp13; conditions: cited from earlier work
# SARS-CoV-2 nsp13 [6] = target: T1, SARS-CoV-2 nsp13; conditions: SARS-CoV-2 nsp13-associated ATPase activity; cited from earlier work
# MERS-CoV = conditions: cited from earlier work
# Vero E6-GFP cells = conditions: cited from earlier work
# HCoV229E = tested on: HCoV229E; parameters: method as in PMID 37562607; conditions: cited from earlier work
# [7] = read-out: Activity in enzyme assay IC50 ATPase BSA-TCEP
# [8] = read-out: Activity in enzyme assay IC50 Unwinding BSA-TCEP
# [9] = read-out: EC50 antiviral activity
# [10] = SARS-CoV-2 infected cells, read-out: EC50 SARS-CoV-2 replication
# [11] = SARS-CoV-2 nsp13-associated unwinding activity, read-out: IC50 unwinding
structure (smiles),measurement,setting,value
CC(C)c1ccc(Cn2cc(/C=C/C(=O)/C=C(\O)C(=O)O)c3ccccc32)cc1 [5c],IC50,SARS-CoV-2 nsp13 [1]; 1 min after activation of the reaction with the substrate,0.76 µM
same,IC50,SARS-CoV-2 nsp13 [1]; 5 min after activation of the reaction with the substrate,1.64 µM
same,IC50,SARS-CoV-2 nsp13 [1]; 10 min after activation of the reaction with the substrate,2.75 µM
same,IC50,SARS-CoV-2 nsp13 [1]; 15 min after activation of the reaction with the substrate,2.94 µM
same,IC50,SARS-CoV-2 nsp13 [1]; 20 min after activation of the reaction with the substrate,2.76 µM
same,nature of the inhibition,SARS-CoV-2 nsp13 [1]; from time-increased IC50 values,non-covalent/reversible
same,effect of extended pre-incubation of compound and enzyme on inhibitory potency,SARS-CoV-2 nsp13 [1]; pre-incubation extended to +20 min and +50 min at RT,did not lead to an increase of the inhibitory potency
same,CC50 at 72 h,[2],> 100 µM
same,IC50,SARS-CoV-2 nsp13 [3]; [7],1.8 ± 0.19 µM
same,higher ATPase inhibition in respect to 4,SARS-CoV-2 nsp13 [3]; ratio of IC50 values,7 fold
same,IC50,SARS-CoV-2 nsp13 [4]; [8],4.73 ± 0.5 µM
O=C(/C=C(\O)C(=O)O)/C=C/c1cn(Cc2ccc(OC(F)(F)F)cc2)c2ccccc12 [5e],CC50 at 72 h,[2],> 100 µM
same,IC50,SARS-CoV-2 nsp13 [3]; [7],6.41 ± 0.05 µM
same,IC50,SARS-CoV-2 nsp13 [4]; [8],6.24 ± 0.24 µM
"N#Cc1ccc(Cn2cc(/C=C/C(=O)/C=C(\O)C(=O)O)c3ccccc32)cc1 [5g, (2Z,5E)-6-(1-(4-cyanobenzyl)-1H-indol-3-yl)-2-hydroxy-4-oxohexa-2,5-dienoic acid]",CC50 at 72 h,[2],> 100 µM
same,IC50,SARS-CoV-2 nsp13 [3]; [7],1.91 ± 0.31 µM
same,IC50,SARS-CoV-2 nsp13 [4]; [8],2.08 ± 0.04 µM
"O=C(/C=C(\O)C(=O)O)/C=C/c1cn(Cc2ccc(F)cc2)c2ccc(Cl)cc12 [5i, (2Z,5E)-6-(5-chloro-1-(4-fluorobenzyl)-1H-indol-3-yl)-2-hydroxy-4-oxohexa-2,5-dienoic acid]",CC50 at 72 h,[2],> 100 µM
same,IC50,SARS-CoV-2 nsp13 [3]; [7],26.3 ± 2.52 µM
same,selectivity for unwinding over ATPase,SARS-CoV-2 nsp13 [4]; IC50 unwinding vs IC50 ATPase,2 order of magnitude
same,IC50,SARS-CoV-2 nsp13 [4]; [8],0.47 ± 0.01 µM
same,gain in activity on unwinding with respect to the hit 4,SARS-CoV-2 nsp13 [4]; ratio of IC50 values,27 fold
CCOC(=O)/C(O)=C/C(=O)/C=C/c1cn(Cc2ccc(OC(F)(F)F)cc2)c2ccccc12 [6e],CC50 at 72 h,[2],> 100 µM
same,IC50,SARS-CoV-2 nsp13 [3]; [7],2.17 ± 0.26 µM
same,IC50,SARS-CoV-2 nsp13 [4]; [8],5.66 ± 0.21 µM
"CCOC(=O)/C(O)=C/C(=O)c1cn(Cc2ccc(F)cc2)c2ccccc12 [8d, Ethyl (Z)-4-(1-(4-fluorobenzyl)-1H-indol-3-yl)-2-hydroxy-4-oxobut-2-enoate]",CC50 at 72 h,[2],> 100 µM
same,IC50,SARS-CoV-2 nsp13 [3]; Activity in enzyme assay IC50 ATPase BSA-TCEP,8.7 ± 0.53 µM
same,IC50,SARS-CoV-2 nsp13 [4]; Activity in enzyme assay IC50 Unwinding BSA-TCEP,1.73 ± 0.53 µM
"CC(C)=Cn1cc(/C=C/C(=O)/C=C(\O)C(=O)O)c2ccccc21 [9c, (2Z,5E)-2-hydroxy-6-(1-(2-methylprop-1-en-1-yl)-1H-indol-3-yl)-4-oxohexa-2,5-dienoic acid]",CC50 at 72 h,[2],> 100 µM
same,IC50,SARS-CoV-2 nsp13 [3]; [7],> 30 µM
same,remaining activity at 30 µM,"SARS-CoV-2 nsp13 [3]; measured at 30 µM, read-out: Percentage of enzymatic residual activity (ATPase)",98.6%
same,IC50,SARS-CoV-2 nsp13 [4]; [8],1.56 ± 0.16 µM
"CC[C@@]1(O)C(=O)OCc2c1cc1n(c2=O)Cc2cc3ccccc3nc2-1 [Camptothecin, reference compound]",CC50 at 72 h,[2],11.1 ± 0.16 µM
C=CCn1c(CSc2ccccc2[N+](=O)[O-])n[nH]c1=S [SSYA10-001],EC50,SARS-CoV-2; [9],81 µM
same,IC50,"SARS-CoV-2 nsp13 [5]; SARS-CoV-2 nsp13, read-out: IC50 vs unwinding",7.5 µM
"CC(C)=CCc1c(O)cc(O)c2c(=O)cc(-c3ccc(O)cc3)oc12 [compound 2, licoflavone C]",EC50,SARS-CoV-2; [9],> 100 µM
CC(C)=CCn1cc(/C=C/C(=O)/C=C(\O)C(=O)O)c2ccccc21 [compound 3],IC50,SARS-CoV-2 nsp13 [6],26.8 µM
same,EC50,SARS-CoV-2; [10],4.54 µM
same,EC50,MERS-CoV,0.33 µM
same,CC50,Vero E6-GFP cells,> 264 µM
same,EC50,HCoV229E,0.54 µM
same,IC50,SARS-CoV-2 nsp13 [5]; [11],9.51 µM
O=C(/C=C(\O)C(=O)O)/C=C/c1cn(Cc2ccccc2)c2ccccc12 [compound 4],IC50,SARS-CoV-2 nsp13 [6],12.8 ± 1.3 µM
same,EC50,SARS-CoV-2; [10],1.03 ± 0.24 µM
same,EC50,MERS-CoV,6.32 µM
same,CC50,Vero E6-GFP cells,> 264 µM
same,EC50,HCoV229E,1.83 µM
same,IC50,SARS-CoV-2 nsp13 [5]; [11],12.7 ± 4.9 µM
